# Assay results reported in patent US9234025B2, “Extracellular allosteric inhibitor binding domain from a tyrosine kinase receptor” (SANOFI, priority 2009, dated 2016).
# Tests used:
# FGFR1^∂3 = target: T1, FGFR1^∂3 (Homo sapiens, UniProt P11362); assay: 1D-NMR, FGFR1 domain D3 fragment; format: binding
# T1 construct: a fragment containing only domain D3 (FGFR1^∂3)
# Description: All STD- and 1D-NMR experiments were carried out on a BRUKER three-channel DRX600 and on a BRUKER four-channel DRX800 spectrometer at the standard temperature of 298 K and were referenced to the internal standard 3-Trimethyl-2,2,3,3-tetradeuteropropionate-sodium salt (TSP). Typically, NMR samples contained 0.5 ml of protein ([…]) in 25 mM Tris/HCl, pH 8.0, 200 mM NaCl, 25 mM L-arginine, 2 mM EDTA, 0.02% azide (in 95% H2O/5% D2O). For protein ligand 1D STD NMR measurements spectra were recorded with 1 mM ligand SSR128129E (100 mM DMSO stock solution) and […] protein with weak 2s RF irradiation on separated protein methyl resonances. Water suppression was carried out using the standard Bruker WATERGATE 3-9-19 sequence. NMR data were processed using the Bruker program xwin NMR software.
# Since SSR was a multi-FGFR inhibitor, we used polypeptide fragments of the various (human) FGFR subtypes. […] We then used ECD fragments of FGFRs to map the binding site of SSR to one of the three Ig-domains. […] In fact, FGFR1^∂3 and FGFR1^∂123 give identical signals (broad line) meaning that we obtained same affinity for these proteins while FGFR1^∂12 and FGFR1^∂2 cause sharp lines (FIG. 11B).
# FGFR2^∂23-Y328D [1] = target: FGFR2^∂23-Y328D (Homo sapiens, UniProt P21802, Y328D); assay: FTIR measurement, FGFR2 Y328D mutant; parameters: FGFR2^∂23 (consisting of domain D2 and 3); made in house; conditions: 100 μM SSR
# Description: Fourier transform infrared measurements were performed using a Bruker Tensor 37 FT-IR spectrometer equipped with an AquaSpec flowcell. The sample compartment was thermostatted to 25° C., 100 spectra were averaged for a good signal to noise ratio. Proteins were purified as described above. Immediately after the gelfiltration, the proteins were dialysed overnight in the same preparation of buffer (10 mM Hepes pH 7.2, 150 mM NaCl) in the presence or absence of SSR. Dialysis buffer samples were used to substract background signal. The analysis was performed using the OPUS software package, provided by Bruker. Interpretation of the results was performed as described {Barth, 2002 #60}.
# We next explored whether SSR bound to amino acid residues that form part of the orthosteric site in D3 or to an alternative allosteric site. Initially, we used the molecular docking algorithms of the software packages MOLEGRO, Autodock and YASARA and available crystallographic data. […] These findings are consistent with a model whereby SSR binds to an allosteric site formed by a hydrophobic pocket near the orthosteric ligand binding site, and in which residue Tyr^328 seems to be critical for mediating the interaction between SSR to FGFR2. We also analyzed the FTIR spectrum of the aforementioned mutated FGFR2 fragments.
# FGFR4 = target: T2, FGFR4 (Homo sapiens, UniProt P22455); assay: AlexaFluor488-FGF2 binding on FGFR4-transfected 300-19 cells (flow cytometry); conditions: SSR 300 nM; FGF2 10 ng/ml; murine pre-B 300-19 cells
# T2 construct: expressed in transfected cells; host or cells: murine pre-B 300-19 cells
# Description: FGF2 was labeled with Alexa Fluor 488 C5-maleimide (Invitrogen, A10254) following purchaser recommendations.
# This AF488-FGF2 was used at 10 ng/ml in binding experiments on murine pre-B 300-19 cells transfected with FGFR1 or FGFR4 constructs in pEF6-V5/His Topo plasmids (Invitrogen). SSR (300 nM final) was pre-incubating 20 min with cells in RPMI 1640 (Invitrogen, 32404-014) with 10% FCS (Hyclone, SH30070.03), 2 mM glutamine, MEM non-essential amino-acid 1× (Gibco, 11140-035), MEM sodium pyruvate 1× (Gibco, 11360-039) and […] monothioglycerol (Sigma, M6145) at 4° C. under 150 rpm agitation. Then, FGF2 (10 ng/ml final) is added for 30 min and binding is measured using a FACS Calibur flow cytometer (Beckton Dickinson). Fluorescence median for each condition is also analysed.
# FGFR2 = target: T3, FGFR2 (Homo sapiens, UniProt P21802); assay: FGFR2 multimerization; format: biochemical
# T3 construct: or the expression of the entire intact receptor in its native environment
# FGFR2^∂23-Y328D [2] = assay: FGF2-induced ERK1/2 phosphorylation in HEK293 cells, FGFR2 Y328D; format: cell-based, human; conditions: Erk1/2 western blot densitometry IC50
# Description: HEK293 cells were either transiently of stably transfected (using FuGENE 6, Roche) with hFGFR2IIIca or hFGFR2IIIca-Y328D cloned in pcDNA3 (Invitrogen). Stably transfected cells were grown in G418 (400 μg/ml) containing medium. Before stimulation, the cells were starved overnight in DMEM (0% serum), and pre-incubated with […] at the required concentration. The cells were subsequently stimulated with FGF2 (concentration between 0.5-10 ng/ml) for 5 min at 37° C. with or without SSR or SU5402 at 1 μM. After washing with ice-cold phosphate-buffered saline containing phosphatase inhibitors (Roche), cells were lysed in RIPA buffer (Tris 30 mM HCl pH 7.5, 150 mM NaCl, 1 mM EDTA, 1% triton-X, 0.5% w/v deoxycholate, containing phophatase and protease inhibitors as described by the manufacturer (Roche)). Cell lysates were centrifuged at 12,000 g for 10 min, and the supernatants were collected. Proteins were separated on Novex polyacrylamide gels (Invitrogen, Carlsbad, Calif.) and subsequently transferred onto Hybond ECL nitrocellulose membranes (Amersham Pharmacia). Following incubation with 5% non-fat milk powder in PBS, the membranes were incubated overnight at 4° C. with the following antibodies: phospho-ERK1/2 (CST:9101), phospho-FRS2 (CST:3861), phospho-PLCγ (CST:2821) and FGFR2 (F0300, Sigma).
# HUVEC = HUVEC chemotactic migration; format: cell-based, human; conditions: FGFR1-driven
# Description: Confluent HUVEC cells are harvested and resuspended in RPMI 1640 (Invitrogen, 32404-014) without FCS, 2 mM glutamine, MEM non-essential amino-acid 1× (Gibco, 11140-035), MEM sodium pyruvate 1× (Gibco, 11360-039) at 0.8 10^6 cells/ml. 250 μl of cell solution is distributed with 4×SSR in the upper chamber of 24-wells BD Biocoat Angiogenesis System for endothelial cell migration (BD Biocoat, 354144) and 750 μl of medium in the lower chamber with FGF2 (R&D, 234-FSE-025), FGF4 (R&D, 235-F4-025) or FGF-19 (in house produced) at 67 ng/ml. Plates are incubated 22 h at 37° C. in a CO2 chamber. Then, plate insert is removed, and placed in a new 24-wells plate (Falcon, 353504) that contains 500 μL of calcein (Molecular probes, C-3100) for 90 min. Then migrated cells are fluorescent and migration is measured by a […] with downstairs reading following 485 nm excitation and 535 nm emission.
# T3 sequence (P21802 22-821): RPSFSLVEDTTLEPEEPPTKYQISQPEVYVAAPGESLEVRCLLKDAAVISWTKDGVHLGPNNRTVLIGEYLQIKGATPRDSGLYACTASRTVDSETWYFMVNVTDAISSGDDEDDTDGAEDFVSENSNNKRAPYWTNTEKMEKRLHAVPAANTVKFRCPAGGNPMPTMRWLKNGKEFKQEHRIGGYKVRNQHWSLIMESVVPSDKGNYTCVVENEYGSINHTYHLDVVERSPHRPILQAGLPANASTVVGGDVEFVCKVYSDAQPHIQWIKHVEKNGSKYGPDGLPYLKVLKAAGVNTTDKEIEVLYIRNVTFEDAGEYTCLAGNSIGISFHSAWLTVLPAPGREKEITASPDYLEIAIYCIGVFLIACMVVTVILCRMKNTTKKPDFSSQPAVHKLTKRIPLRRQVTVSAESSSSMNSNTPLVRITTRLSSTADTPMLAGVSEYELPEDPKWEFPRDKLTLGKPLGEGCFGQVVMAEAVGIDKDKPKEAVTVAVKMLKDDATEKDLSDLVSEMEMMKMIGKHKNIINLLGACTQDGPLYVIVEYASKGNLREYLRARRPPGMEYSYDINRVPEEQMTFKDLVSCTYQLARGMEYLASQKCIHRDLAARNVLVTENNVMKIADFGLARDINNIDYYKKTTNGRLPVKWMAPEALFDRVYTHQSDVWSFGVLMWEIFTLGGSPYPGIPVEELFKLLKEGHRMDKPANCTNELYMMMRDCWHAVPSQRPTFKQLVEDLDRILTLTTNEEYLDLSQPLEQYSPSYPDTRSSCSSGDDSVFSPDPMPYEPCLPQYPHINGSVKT
# T2 sequence (P22455 22-802): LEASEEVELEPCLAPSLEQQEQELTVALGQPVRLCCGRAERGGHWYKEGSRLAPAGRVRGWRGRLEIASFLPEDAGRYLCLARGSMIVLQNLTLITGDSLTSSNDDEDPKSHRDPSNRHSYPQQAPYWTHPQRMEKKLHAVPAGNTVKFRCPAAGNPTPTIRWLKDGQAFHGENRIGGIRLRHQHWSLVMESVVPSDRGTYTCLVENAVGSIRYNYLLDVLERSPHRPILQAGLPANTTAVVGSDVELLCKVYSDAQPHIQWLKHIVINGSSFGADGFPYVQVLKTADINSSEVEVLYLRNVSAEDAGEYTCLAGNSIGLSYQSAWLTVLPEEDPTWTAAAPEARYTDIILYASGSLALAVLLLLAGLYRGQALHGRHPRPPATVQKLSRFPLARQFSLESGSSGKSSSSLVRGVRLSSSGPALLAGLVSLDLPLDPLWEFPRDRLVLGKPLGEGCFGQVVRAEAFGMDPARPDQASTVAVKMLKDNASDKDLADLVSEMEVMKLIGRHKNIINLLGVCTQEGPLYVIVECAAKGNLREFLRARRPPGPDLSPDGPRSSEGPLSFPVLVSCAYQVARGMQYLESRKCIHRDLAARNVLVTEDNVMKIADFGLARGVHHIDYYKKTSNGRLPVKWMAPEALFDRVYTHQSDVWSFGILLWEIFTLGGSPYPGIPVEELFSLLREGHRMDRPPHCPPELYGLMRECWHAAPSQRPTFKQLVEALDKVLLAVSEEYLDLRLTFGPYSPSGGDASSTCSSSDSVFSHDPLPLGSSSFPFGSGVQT
# T1 sequence (P11362 255-357 limits assumed): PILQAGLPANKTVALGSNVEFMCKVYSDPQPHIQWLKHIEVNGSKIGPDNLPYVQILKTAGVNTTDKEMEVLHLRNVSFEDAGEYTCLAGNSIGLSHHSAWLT
# FGFR2^∂23-Y328D (Homo sapiens, UniProt P21802, Y328D), sequence (P21802 148-366 Y328D limits assumed): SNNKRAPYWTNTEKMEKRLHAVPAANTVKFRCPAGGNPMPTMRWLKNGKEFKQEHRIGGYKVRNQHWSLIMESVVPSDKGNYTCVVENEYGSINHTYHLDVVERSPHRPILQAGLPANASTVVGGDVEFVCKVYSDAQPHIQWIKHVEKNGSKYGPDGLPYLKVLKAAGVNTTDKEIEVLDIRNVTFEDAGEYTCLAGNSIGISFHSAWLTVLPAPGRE
compound,measurement,setting,value
COc1c(C)c(C(=O)c2ccc(N)c(C(=O)[O-])c2)n2ccccc12.[Na+] [SSR],binding to FGFR1 domain D3 fragment,FGFR1^∂3,identified a binding site for SSR
same,change of FTIR spectrum (conformational change),FGFR2^∂23-Y328D [1],failed to induce this change
same,competition with AlexaFluor488-labelled FGF2 binding to FGFR4,FGFR4,not able to compete this binding
same,FGFR2 dimerization (multimerization),FGFR2,not able to inhibit
same,"sensitivity to SSR inhibition, FGFR2-Y328D compared to FGFR2-WT",FGFR2^∂23-Y328D [2],about 5 times less sensitive
same,FGF2-induced HUVEC chemotactic migration,HUVEC,reduction of FGF2-induced HUVEC chemotactic migration
